In data set [1] the test system is HCT-15. Kind of data set: Cytotoxicity against human HCT15 cells after 72 hrs by MTT assay. The format is functional, cell-based. The settings on record: HCT-15, 72 h. For orientation: Tetrazolium dyes change colour on reduction, which living cells bring about.
Data set [2] deals with MGC-803. As to the kind of experiment: Cytotoxicity against human MGC803 cells after 72 hrs by MTT assay. Type of data set: functional, cell-based. Particulars: MGC-803, 72 h.
Data set [3] relates to K562. As to the kind of experiment: Cytotoxicity against human K562 cells after 72 hrs by MTT assay. The format is functional, cell-based. The settings on record: K562, 72 h.
A short description of data set [4]: Cytotoxicity against human HSF cells after 72 hrs by MTT assay. The format is cell-based.
Data set [5] is described as follows: Selectivity index, ratio of IC50 for human HSF cells to IC50 for human HCT15 cells. The settings on record: HSF cells versus HCT15 cells, read-out: Ratio IC50. The format is toxicity.
Data set [6] in a line: Cytotoxicity against human […] cells after 72 hrs by MTT assay. The format is functional, cell-based.
Data set [7] deals with Bel7402/5-FU. As to the kind of experiment: Cytotoxicity against human Bel7402/5-FU cells after 72 hrs by MTT assay. Type of data set: functional, cell-based.
In data set [8] the test system is MCF7. As to the kind of experiment: Cytotoxicity against human MCF7 cells after 72 hrs by MTT assay. Type of data set: functional, cell-based. The settings on record: MCF7, 72 h.
In data set [9] the test system is NCI/ADR-RES. As to the kind of experiment: Cytotoxicity against human MCF7/ADR cells after 72 hrs by MTT assay. Type of data set: functional, cell-based.
Data set [10] has as its system A549/TR. As to the kind of experiment: Cytotoxicity against human A549/TAX cells after 72 hrs by MTT assay. The format is functional, cell-based.
Data set [11] in a line: Selectivity ratio of IC50 for human […] cells to IC50 for human Bel7402/5-FU cells. The format is functional.
Data set [12] can be described thus: Selectivity ratio of IC50 for human MCF7 cells to IC50 for human MCF7/ADR cells. Type of data set: functional.
Data set [13] in a line: Selectivity ratio of IC50 for human A549 cells to IC50 for human A549/TAX cells. Type of data set: functional.
The subject of data set [14] is A549. Kind of data set: Cytotoxicity against human A549 cells after 72 hrs by MTT assay. The format is functional, cell-based. Particulars: A549, 72 h.

Structures are written as SMILES. Bounds are passed on as bounds.

For `CCC(SCCC(C)C)c1cc(OC)c2c(c1OC)/C(=N/O)C=C/C2=N\O` (stereo not drawn), the IC50 was 5.23 µM in data set [1], 10.4 µM in [2], 3.28 µM in data set [3] and over 50 µM in data set [4]. Further, in [5], the selectivity ratio was over 22.4.

With `CCCCCCCCCCCCCCC(SC(=O)c1cc(OC)c(OC)c(OC)c1)c1cc(OC)c2c(c1OC)/C(=N/O)C=C/C2=N\O` (stereo not drawn), the IC50 in data set [1] is 7.98 µM; in data set [2], 9.68 µM; in [3], 5.83 µM; in data set [4], over 50 µM. Also, the selectivity ratio in [5] was over 6.27.

As to `CCCCC(SC(=O)c1cc(OC)c(OC)c(OC)c1)c1cc(OC)c2c(c1OC)/C(=N/O)C=C/C2=N\O` (stereo not drawn), the IC50 in [1] was 7.73 µM; in [2], 14.7 µM; in [3] it was 6.35 µM; in data set [4], over 50 µM. The selectivity ratio in [5] is over 6.47.

With `CCCCCCCCCCCCC(SCCC(C)C)c1cc(OC)c2c(c1OC)/C(=N/O)C=C/C2=N\O` (stereo not drawn), the IC50 is 13 µM in data set [1], 17.4 µM in [2], 10.1 µM in data set [3] and over 50 µM in [4]. Also, in data set [5], the selectivity ratio was over 3.86.

Regarding `CCCCCCCCCCC(SC(=O)c1cc(OC)c(OC)c(OC)c1)c1cc(OC)c2c(c1OC)/C(=N/O)C=C/C2=N\O` (stereo not drawn), the IC50 in data set [1] was 1.39 µM; in data set [2], 4.66 µM; in [3], 1.96 µM; in [4], over 50 µM. Moreover, the selectivity ratio in data set [5] is over 36.

As for `CCC(SC(=O)c1cc(OC)c(OC)c(OC)c1)c1cc(OC)c2c(c1OC)/C(=N/O)C=C/C2=N\O` (stereo not drawn), the IC50 in [1] was 12.5 µM; in data set [2] it was 30.3 µM; in data set [3], 14.4 µM; in data set [4] it was over 50 µM. In data set [5], the selectivity ratio is over 18.2.

In the case of `CCCCCCCCC(SCC)c1cc(OC)c2c(c1OC)/C(=N/O)C=C/C2=N\O` (stereo not drawn), the IC50 in data set [1] was 2.32 µM; in data set [2] it was 4.39 µM; in [3] it was 2.71 µM; in [4], over 50 µM. In [5], the selectivity ratio was over 21.6.

Consider `CCCCC(SCCC(C)C)c1cc(OC)c2c(c1OC)/C(=N/O)C=C/C2=N\O` (stereo not drawn), for which the IC50 in data set [1] was 2.92 µM; in [2], 5.96 µM; in [3] it was 2.03 µM; in data set [4] it was over 50 µM. In addition, the selectivity ratio in data set [5] was over 17.1.

Regarding `CCCCCCCCCCCCCCC(SCCC(C)C)c1cc(OC)c2c(c1OC)/C(=N/O)C=C/C2=N\O` (stereo not drawn), the IC50 in data set [1] was 22.5 µM; in [2], 38.2 µM; in data set [3] it was 25.7 µM; in [4], over 50 µM. Further, in [5], the selectivity ratio was over 2.22.

In the case of `CCCCCCC(SC(=O)c1cc(OC)c(OC)c(OC)c1)c1cc(OC)c2c(c1OC)/C(=N/O)C=C/C2=N\O` (stereo not drawn), the IC50 in data set [1] is 2.21 µM; in [2] it was 4.92 µM; in data set [3] it was 1.52 µM; in data set [4], over 50 µM. In [5], the selectivity ratio is over 22.6.

Turning to `CC(C)=CC[C@@H](O)C1=CC(=O)c2c(O)ccc(O)c2C1=O` [SHIKONIN], the IC50 in data set [3] turned out to be 1.02 µM; in data set [4] it was 1.25 µM. Also, the selectivity ratio in [5] was 1.45.

For `CCCCCCCCCCCCC(SC(=O)c1cc(OC)c(OC)c(OC)c1)c1cc(OC)c2c(c1OC)/C(=N/O)C=C/C2=N\O` (stereo not drawn), the IC50 in [1] was 5.42 µM; in data set [2], 7.59 µM; in [3] it was 4.41 µM; in data set [4], over 50 µM. Besides, the selectivity ratio in data set [5] is over 7.85.

On to `CCCCCCCCCCCCCCC(c1cc(OC)c2c(c1OC)/C(=N/O)C=C/C2=N\O)S(=O)(=O)CCC(C)C` (stereo not drawn), for which the IC50 in data set [1] was 2.74 µM; in [2], 3.53 µM; in data set [3] it was 1.56 µM; in data set [4], over 50 µM. Further, the selectivity ratio in [5] was over 7.44.

For `CCCCCCCCCCC(SCCCCC)c1cc(OC)c2c(c1OC)/C(=N/O)C=C/C2=N\O` (stereo not drawn), the IC50 was 6.34 µM in data set [1], 12.1 µM in data set [2], 7.21 µM in data set [3] and over 50 µM in data set [4]. The selectivity ratio in [5] was over 7.89.

Turning to `COc1cccc2c1C(=O)c1c(O)c3c(c(O)c1C2=O)C[C@@](O)(C(=O)CO)C[C@@H]3O[C@H]1C[C@H](N)[C@H](O)[C@H](C)O1.Cl` [DOXORUBICIN HYDROCHLORIDE], the IC50 stood at 1.32 µM in data set [6]; 11 µM in [7]; 0.42 µM in [8]; 39.5 µM in [9]; 42.6 µM in data set [10]. Also, the “Ratio IC50” value worked out at 0.12 in data set [11], 0.01 in [12] and 0.04 in [13].

Consider `CCCCCCCCC(SC(=O)c1ccco1)c1cc(OC)c2c(c1OC)/C(=N/O)C=C/C2=N\O` (stereo not drawn), for which the IC50 was 2.42 µM in data set [1], 5.26 µM in [2], 1.38 µM in data set [3] and over 50 µM in [4]. Also, in data set [5], the selectivity ratio was over 20.7.

Consider `CC(=O)O[C@H]1C(=O)[C@@]2(C)[C@H]([C@H](OC(=O)c3ccccc3)[C@]3(O)C[C@H](OC(=O)[C@H](O)[C@@H](NC(=O)c4ccccc4)c4ccccc4)C(C)=C1C3(C)C)[C@]1(OC(C)=O)CO[C@@H]1C[C@@H]2O` [PACLITAXEL], for which the IC50 was found to be 0.65 µM in [6]; 10.5 µM in [7]; 0.47 µM in [8]; 17.7 µM in [9]; 0.54 µM in data set [14]; 24.5 µM in [10]. The entries for the “Ratio IC50” value in data set [11], in [12] and in data set [13] were 0.06, 0.03 and 0.02, respectively.

With `CCCCCCCCC(SC(=O)c1cccs1)c1cc(OC)c2c(c1OC)/C(=N/O)C=C/C2=N\O` (stereo not drawn), the IC50 was 1.22 µM in data set [1], 3.71 µM in data set [2], 0.95 µM in data set [3] and over 50 µM in data set [4]. For the same compound, in data set [5], the selectivity ratio was over 41.

For the compound `CCCCCCCCCCSC(CCCCCCCCCC)c1cc(OC)c2c(c1OC)/C(=N/O)C=C/C2=N\O` (stereo not drawn), the IC50 in data set [1] is 35.2 µM; in data set [2], over 50 µM; in data set [3], 40.3 µM; in data set [4] it was over 50 µM. Also, the selectivity ratio in [5] was over 1.42.

On to `CCCCCCCCCCC(SCC)c1cc(OC)c2c(c1OC)/C(=N/O)C=C/C2=N\O` (stereo not drawn), for which the IC50 is 0.89 µM in [1], 1.87 µM in data set [2], 1.05 µM in data set [3] and over 50 µM in data set [4]. Besides, in data set [5], the selectivity ratio is over 56.2.

Consider `CCCCCCCCCCC(SCCCCCC)c1cc(OC)c2c(c1OC)/C(=N/O)C=C/C2=N\O` (stereo not drawn), for which the IC50 in [1] was 10.3 µM; in [2], 18.5 µM; in [3], 10.8 µM; in data set [4], over 50 µM. Moreover, the selectivity ratio in [5] is over 4.86.

For `O=c1[nH]cc(F)c(=O)[nH]1` [FLUOROURACIL], the IC50 in [2] is over 50 µM; in data set [3], 12.2 µM; in data set [4], over 50 µM; in data set [6] it was 22.9 µM; in [7] it was 936 µM; in data set [8] it was 26.6 µM. The IC50 in data set [9] stood at 513 µM; in data set [14], 28.6 µM; in [10] it was 112 µM. Moreover, the selectivity ratio in data set [5] was over 6.64. In addition, the “Ratio IC50” value in [11] was found to be 0.02; in data set [12], 0.05; in data set [13], 0.26.

In the case of `CCCCCCC(c1cc(OC)c2c(c1OC)/C(=N/O)C=C/C2=N\O)S(=O)(=O)CCC(C)C` (stereo not drawn), the IC50 in [1] is 7.33 µM; in data set [2] it was 15.7 µM; in data set [3], 4.25 µM; in [4], over 50 µM. Besides, in data set [5], the selectivity ratio was over 6.82.

Consider `CCCCCCCCC(c1cc(OC)c2c(c1OC)/C(=N/O)C=C/C2=N\O)S(=O)(=O)CCC(C)C` (stereo not drawn), for which the IC50 in [1] is 3.89 µM; in data set [2], 7.82 µM; in data set [3] it was 1.29 µM; in data set [4], over 50 µM. For the same compound, in data set [5], the selectivity ratio was over 12.6.

For `CCCCCCCCC(SCCCCCC)c1cc(OC)c2c(c1OC)/C(=N/O)C=C/C2=N\O` (stereo not drawn), the IC50 in data set [1] is 1.08 µM; in [2], 1.91 µM; in data set [3], 1.14 µM; in [4], over 50 µM. In data set [5], the selectivity ratio is over 46.3.

For the compound `CCCCCCCCCCC(SCCC(C)C)c1cc(OC)c2c(c1OC)/C(=N/O)C=C/C2=N\O` (stereo not drawn), the IC50 in [1] is 4.75 µM; in data set [2] it was 8.91 µM; in data set [3], 5.49 µM; in data set [4], over 50 µM. In addition, in data set [5], the selectivity ratio is over 10.5.

As for `CCCCCCCCCC(SCCC(C)C)c1cc(OC)c2c(c1OC)/C(=N/O)C=C/C2=N\O` (stereo not drawn), the IC50 in [1] was 0.92 µM; in data set [2], 1.54 µM; in data set [3] it was 0.98 µM; in data set [4] it was over 50 µM. Also, the selectivity ratio in [5] is over 54.3.

`CCCCCCCCC(SC(=O)c1ccc(C(F)(F)F)cc1)c1cc(OC)c2c(c1OC)/C(=N/O)C=C/C2=N\O` (stereo not drawn): the IC50 in data set [1] is 3.82 µM; in data set [2], 6.34 µM; in [3], 4.45 µM; in [4], over 50 µM. For the same compound, the selectivity ratio in data set [5] is over 13.1.

For `CCCCCCC(SCCC(C)C)c1cc(OC)c2c(c1OC)/C(=N/O)C=C/C2=N\O` (stereo not drawn), the IC50 was 1.04 µM in data set [1], 1.9 µM in data set [2], 1.28 µM in [3] and over 50 µM in data set [4]. The selectivity ratio in data set [5] was over 48.1.

In general, IC50 refers to the concentration needed to halve the response being measured. Read a low IC50 as greater potency in that assay.

The values above are taken from ChEMBL document CHEMBL4480391, “Discovery and synthesis of sulfur-containing 6-substituted 5,8-dimethoxy-1,4-naphthoquinone oxime derivatives as new and potential anti-MDR cancer agents” (Eur J Med Chem, 2019).
